This passage reports IC50 results from patent US8039487B2, “Piperidine-amide derivatives” (Hoffmann-La Roche Inc., priority 2007, dated 2011).

This assay addresses T1, liver carnitine palmitoyl transferase 1 (L-CPT1) (Homo sapiens, UniProt P50416).
T1 construct: made in house; host or cells: Pichia pastoris strain X-33 (crude cell-free extract)
T1 sequence (P50416 1-773): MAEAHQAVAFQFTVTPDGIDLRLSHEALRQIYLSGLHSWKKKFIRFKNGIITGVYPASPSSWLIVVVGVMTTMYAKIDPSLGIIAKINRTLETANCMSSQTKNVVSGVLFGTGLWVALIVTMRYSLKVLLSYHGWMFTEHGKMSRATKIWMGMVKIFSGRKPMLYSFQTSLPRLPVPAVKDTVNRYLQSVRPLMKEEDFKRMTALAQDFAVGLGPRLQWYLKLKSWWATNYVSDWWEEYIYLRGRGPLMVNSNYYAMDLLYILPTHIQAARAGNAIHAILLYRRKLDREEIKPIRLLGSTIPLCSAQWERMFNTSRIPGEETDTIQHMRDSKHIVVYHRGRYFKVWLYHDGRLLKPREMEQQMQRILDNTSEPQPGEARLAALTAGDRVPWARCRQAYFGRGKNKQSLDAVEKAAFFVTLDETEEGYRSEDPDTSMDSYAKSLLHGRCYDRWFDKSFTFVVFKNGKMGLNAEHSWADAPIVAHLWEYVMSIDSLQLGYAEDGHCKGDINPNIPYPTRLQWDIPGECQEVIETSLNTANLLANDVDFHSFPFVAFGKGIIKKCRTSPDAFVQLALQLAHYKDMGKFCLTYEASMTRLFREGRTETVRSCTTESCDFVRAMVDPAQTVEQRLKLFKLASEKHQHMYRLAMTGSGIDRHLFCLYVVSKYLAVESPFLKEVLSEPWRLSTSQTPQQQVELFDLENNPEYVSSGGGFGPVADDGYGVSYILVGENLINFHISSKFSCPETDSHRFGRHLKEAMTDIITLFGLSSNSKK
In words: L-CPT1 inhibition, spectrophotometric CPT activity assay with DTNB (Ellman's reagent). Type of assay: biochemical. As to conditions: human liver CPT1 expressed in P. pastoris, cell extracts; carnitine 500 μM, palmitoyl-CoA 80 μM, DTNB 300 μM, pH 7.4. How it is done: The following tests were carried out in order to determine the activity of the compounds of the present invention. Background information on the performed assays can be found in: Jackson et al., 1999, Biochem. J. 341, 483-489 and Jackson et al., 2000, J. Biol. Chem. 275, 19560-19566.
Human liver and muscle CPT1 cDNAs and rat CPT2 cDNA were subcloned in pGAPZB or pGAPZA, respectively. These plasmids were used to transform P. pastoris strain X-33 via electroporation after the preparation of electrocompetent cells. High copy number clones were selected where necessary using 0.5 or 1 mg/ml Zeocin. Cultures for activity measurements were induced for 16 h in YPD medium (1% yeast extract, 2% peptone, 2% glucose). Crude cell extracts were prepared by disrupting the cells with glass beads or French Press, depending on fermenter sizes. After centrifugation, the cell-free extracts were resuspended in cell breaking buffer (50 mM Tris, pH7.4, 100 mM KCl, 1 mM EDTA) in the presence of a protease inhibitor cocktail, before aliquoting and freezing at −20° C.
CPT activity was measured using a spectrophotometric assay using 5,5′-dithio-bis-(2-nitrobenzoic acid) (DTNB) also called Ellman's reagent. The HS-CoA released on the formation of acylcarnitine from carnitine (500 μM) and palmitoyl-CoA (80 μM) reduced DTNB (300 μM) forming 5-mercapto-(2-nitrobenzoic acid) which absorbed at 410 nm with a molar extinction coefficient of 13600 M^−1cm^−1. The assay buffer contained 120 mM KCl, 25 mM Tris, pH 7.4, 1 mM EDTA. This assay was used for the identification of selective inhibitors of the liver CPT1 isoform versus the muscle CPT1 and CPT2 isoforms.
Take `O=C(COc1ccccc1)N1CCCC[C@@H]1c1nc(-c2ccc(Cl)cc2)cs1` [Example 1, 1-{(R)-2-[4-(4-Chloro-phenyl)-thiazol-2-yl]-piperidin-1-yl}-2-phenoxy-ethanone]: the IC50 (commonly the concentration that inhibits the measured activity by half) amounted to 1400 nM.
Compound `O=C(COc1ccccc1)N1CCCC[C@@H]1c1nc(-c2ccccc2)cs1` [Example 2, 2-Phenoxy-1-[(R)-2-(4-phenyl-thiazol-2-yl)-piperidin-1-yl]-ethanone] registered an IC50 of 268 nM.
`O=C(O)c1ccc(-c2csc([C@H]3CCCCN3C(=O)COc3ccccc3)n2)cc1` [Example 3, 4-{2-[(R)-1-(2-Phenoxy-acetyl)-piperidin-2-yl]-thiazol-4-yl}-benzoic acid] yielded an IC50 of 129 nM.
For `O=C(COc1ccccc1)N1CCCC[C@@H]1c1nc(-c2ccc(OC(F)(F)F)cc2)cs1` [Example 4, 2-Phenoxy-1-{(R)-2-[4-(4-trifluoromethoxy-phenyl)-thiazol-2-yl]-piperidin-1-yl}-ethanone] the value was 798 nM.
For `O=C(O)c1cccc(-c2csc([C@H]3CCCCN3C(=O)COc3ccccc3)n2)c1` [Example 5, 3-{2-[(R)-1-(2-Phenoxy-acetyl)-piperidin-2-yl]-thiazol-4-yl}-benzoic acid] the value was 33.5 nM.
For `O=C(COc1ccccc1)N1CCCC[C@@H]1c1nc(-c2ccccn2)cs1` [Example 6, 2-Phenoxy-1-[(R)-2-(4-pyridin-2-yl-thiazol-2-yl)-piperidin-1-yl]-ethanone] the value was 19.6 nM; for `O=C(COc1ccccc1)N1CCCC[C@@H]1c1nc(-c2ccc(F)c(F)c2)cs1` [Example 7, 1-{(R)-2-[4-(3,4-Difluoro-phenyl)-thiazol-2-yl]-piperidin-1-yl}-2-phenoxy-ethanone], 286 nM; for `O=C(COc1ccccc1)N1CCCC[C@@H]1c1nc(-c2cccnc2)cs1` [Example 8, 2-Phenoxy-1-[(R)-2-(4-pyridin-3-yl-thiazol-2-yl)-piperidin-1-yl]-ethanone], 25 nM.
Consider `COc1ccc(Cl)cc1-c1csc([C@H]2CCCCN2C(=O)COc2ccccc2)n1` [Example 9, 1-{(R)-2-[4-(5-Chloro-2-methoxy-phenyl)-thiazol-2-yl]-piperidin-1-yl}-2-phenoxy-ethanone], for which 247 nM corresponded to half-maximal inhibition (IC50).
For `O=C(COc1ccccc1)N1CCCC[C@@H]1c1nc(-c2ccncc2)cs1` [Example 10, 2-Phenoxy-1-[(R)-2-(4-pyridin-4-yl-thiazol-2-yl)-piperidin-1-yl]-ethanone] the value was 68 nM; for `COc1ccccc1-c1csc([C@H]2CCCCN2C(=O)COc2ccccc2)n1` [Example 11, 1-{(R)-2-[4-(2-Methoxy-phenyl)-thiazol-2-yl]-piperidin-1-yl}-2-phenoxy-ethanone], 272 nM; for `CS(=O)(=O)c1ccc(-c2csc([C@H]3CCCCN3C(=O)COc3ccccc3)n2)cc1` [Example 12, 1-{(R)-2-[4-(4-Methanesulfonyl-phenyl)-thiazol-2-yl]-piperidin-1-yl}-2-phenoxy-ethanone], 141 nM.
For `COC(=O)c1cccc(-c2csc([C@H]3CCCCN3C(=O)COc3ccccc3)n2)n1` [Example 13, 6-{2-[(R)-1-(2-Phenoxy-acetyl)-piperidin-2-yl]-thiazol-4-yl}-pyridine-2-carboxylic acid methyl ester] the value was 42.4 nM.
Compound `O=C1Cc2cc(-c3csc([C@H]4CCCCN4C(=O)COc4ccccc4)n3)ccc2N1` [Example 14, 5-{2-[(R)-1-(2-Phenoxy-acetyl)-piperidin-2-yl]-thiazol-4-yl}-1,3-dihydro-indol-2-one] came in with an IC50 of 65.9 nM.
For `CC(=O)Nc1ccc(-c2csc([C@H]3CCCCN3C(=O)COc3ccccc3)n2)cc1` [Example 15, N-(4-{2-[(R)-1-(2-Phenoxy-acetyl)-piperidin-2-yl]-thiazol-4-yl}-phenyl)-acetamide] the value was 32.6 nM.
The result for `O=C(COc1ccccc1)N1CCCC[C@@H]1c1nc(-c2ccc(O)cc2)cs1` [Example 16, 1-{(R)-2-[4-(4-Hydroxy-phenyl)-thiazol-2-yl]-piperidin-1-yl}-2-phenoxy-ethanone] reads 79.6 nM; that for `O=C(COc1ccccc1)N1CCCC[C@@H]1c1nc(-c2ccc3c(c2)OCO3)cs1` [Example 17, 1-[(R)-2-(4-Benzo[1,3]dioxol-5-yl-thiazol-2-yl)-piperidin-1-yl]-2-phenoxy-ethanone], 134 nM.
For `CN(C)c1ccc(-c2csc([C@H]3CCCCN3C(=O)COc3ccccc3)n2)cc1` [Example 18, 1-{(R)-2-[4-(4-Dimethylamino-phenyl)-thiazol-2-yl]-piperidin-1-yl}-2-phenoxy-ethanone] the value was 420 nM.
For the compound `Cc1c(-c2csc([C@H]3CCCCN3C(=O)COc3ccccc3)n2)[nH]c2ccccc12` [Example 19, 1-{(R)-2-[4-(3-Methyl-1H-indol-2-yl)-thiazol-2-yl]-piperidin-1-yl}-2-phenoxy-ethanone], the IC50 was 330 nM.
The result for `N#Cc1ccc(-c2csc([C@H]3CCCCN3C(=O)COc3ccccc3)n2)cc1` [Example 20, 4-{2-[(R)-1-(2-Phenoxy-acetyl)-piperidin-2-yl]-thiazol-4-yl}-benzonitrile] reads 40.5 nM; that for `N#Cc1cccc(-c2csc([C@H]3CCCCN3C(=O)COc3ccccc3)n2)c1` [Example 21, 3-{2-[(R)-1-(2-Phenoxy-acetyl)-piperidin-2-yl]-thiazol-4-yl}-benzonitrile], 65 nM; that for `O=C(COc1ccccc1)N1CCCC[C@@H]1c1nc(-c2ccc(Cl)nc2)cs1` [Example 22, 1-{(R)-2-[4-(6-Chloro-pyridin-3-yl)-thiazol-2-yl]-piperidin-1-yl}-2-phenoxy-ethanone], 95 nM.
The result for `O=C(COc1ccccc1)N1CCCC[C@@H]1c1nc(-c2ccc(Br)s2)cs1` [Example 23, 1-{(R)-2-[4-(5-Bromo-thiophen-2-yl)-thiazol-2-yl]-piperidin-1-yl}-2-phenoxy-ethanone] reads 88.6 nM.
With `CC(=O)Nc1ccc(-c2nc([C@H]3CCCCN3C(=O)COc3ccccc3)cs2)cc1` [Example 25, N-(4-{4-[(R)-1-(2-Phenoxy-acetyl)-piperidin-2-yl]-thiazol-2-yl}-phenyl)-acetamide], half-maximal inhibition (IC50) was put at 164 nM.
As to `O=C(COc1ccccc1)N1CCCC[C@@H]1c1csc(-c2n[nH]c3ccccc23)n1` [Example 26, 1-{(R)-2-[2-(1H-Indazol-3-yl)-thiazol-4-yl]-piperidin-1-yl}-2-phenoxy-ethanone], the IC50 was determined as 130 nM.
Take `O=C(COc1ccccc1)N1CCCC[C@@H]1c1csc(-c2ccc(C(F)(F)F)nc2)n1` [Example 27, 2-Phenoxy-1-{(R)-2-[2-(6-trifluoromethyl-pyridin-3-yl)-thiazol-4-yl]-piperidin-1-yl}-ethanone]: 313 nM corresponded to half-maximal inhibition (IC50).
For `O=C(COc1ccccc1)N1CCCC[C@@H]1c1csc(-c2ccc(C(F)(F)F)cn2)n1` [Example 28, 2-Phenoxy-1-{(R)-2-[2-(5-trifluoromethyl-pyridin-2-yl)-thiazol-4-yl]-piperidin-1-yl}-ethanone] the value was 935 nM; for `O=C(COc1ccccc1)N1CCCC[C@@H]1c1csc(-c2cnccn2)n1` [Example 29, 2-Phenoxy-1-[(R)-2-(2-pyrazin-2-yl-thiazol-4-yl)-piperidin-1-yl]-ethanone], 224 nM; for `Cc1ccc(-c2nc([C@H]3CCCCN3C(=O)COc3ccccc3)cs2)cn1` [Example 30, 1-{(R)-2-[2-(6-Methyl-pyridin-3-yl)-thiazol-4-yl]-piperidin-1-yl}-2-phenoxy-ethanone], 88.7 nM.
For `O=C(COc1ccccc1)N1CCCC[C@@H]1c1csc(-c2cccnc2)n1` [Example 31, 2-Phenoxy-1-[(R)-2-(2-pyridin-3-yl-thiazol-4-yl)-piperidin-1-yl]-ethanone] the value was 56.2 nM.
